Residues, ends and D or L forms follow the SMILES beside them.
How the values were obtained:
[1] = biological target: T1, AnCE (Drosophila melanogaster, UniProt Q10714); assay: Inhibition of AnCE activity, fluorogenic Abz-FRK(Dnp)-P substrate assay; assay type: biochemical; details: for IC50: AnCE 25 ng, substrate Abz-FRK(Dnp)-P, pH 7.5, 20 °C, 10 min pre-incubation with inhibitor; for Ki: AnCE
T1 construct: made in house; host or cells: Pichia pastoris GS115 (vector pPiC9), purified from the culture supernatant
T1 sequence (Q10714 18-615): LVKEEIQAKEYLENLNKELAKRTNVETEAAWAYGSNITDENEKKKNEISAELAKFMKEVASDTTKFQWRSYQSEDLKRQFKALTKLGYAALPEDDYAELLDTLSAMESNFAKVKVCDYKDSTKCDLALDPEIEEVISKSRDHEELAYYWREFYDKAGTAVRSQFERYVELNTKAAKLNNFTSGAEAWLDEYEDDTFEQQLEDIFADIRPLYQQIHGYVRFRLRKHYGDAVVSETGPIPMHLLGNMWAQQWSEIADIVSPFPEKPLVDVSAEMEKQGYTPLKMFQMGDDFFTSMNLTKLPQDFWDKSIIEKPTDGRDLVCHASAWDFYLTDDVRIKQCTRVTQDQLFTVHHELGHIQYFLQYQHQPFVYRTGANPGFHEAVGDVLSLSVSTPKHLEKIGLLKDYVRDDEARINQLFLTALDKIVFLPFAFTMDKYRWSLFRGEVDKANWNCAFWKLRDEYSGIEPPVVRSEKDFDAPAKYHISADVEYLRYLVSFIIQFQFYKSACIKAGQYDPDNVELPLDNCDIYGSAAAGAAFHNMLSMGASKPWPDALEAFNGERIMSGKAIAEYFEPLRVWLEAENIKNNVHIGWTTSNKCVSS
Method: Enzyme assays were performed using the internally quenched fluorogenic peptide Abz-FRK(Dnp)-P (Enzo Life Sciences Ltd., Exeter, UK) as a substrate for 25 ng of AnCE in 200 µL of 100 mM HEPES buffer pH 7.5 with 50 mM NaCl and 10 µM ZnCl2. The reaction was started by adding 2 µL of 5 mM Abz-FRK(Dnp)-P in dimethyl sulfoxide to the buffer in wells of a 96-well black plastic plate (Corning Life Sciences, High Wycombe, UK), and the release of fluorescence on hydrolysis of the substrate was monitored continuously at 20 °C using a FLUOstar Omega (BMG Labtech GmbH, Offenburg, Germany) with λex at 340 nm and λem set at 430 nm. For studying the effect of dipeptide inhibitors, the enzyme in the assay buffer was pre-incubated with inhibitor for 10 min prior to the addition of the substrate. IC50 values were determined using the non-linear regression curve-fitting software [log(inhibitor) vs. response] of GraphPad Prism 7.01 (GraphPad Software, San Diego, CA, USA). The coefficient of determination (R^2) values for the regression model ranged from 0.9852 to 0.9629. Ki values were obtained using the Cheng–Prusoff equation and a substrate Km of 14.24 µM, obtained using non-linear regression curve-fitting software (Michaelis–Menten) of GraphPad Prism 7.01. The R^2 for the Km determination was 0.9787 [31].

[2] = test system: cACE; set-up: method as in PMID 25053098; details: cited from earlier work
[3] = biological target: nACE; set-up: method as in PMID 25053098; details: cited from earlier work
[4] = test system: ACE; set-up: method as in doi:10.1007/s00217-013-2014-x; details: inhibition of ACE activity; cited from earlier work
[5] = from IC50 by Cheng–Prusoff equation, substrate Km 14.24 µM

## N[C@@H](Cc1ccc(O)cc1)C(=O)N[C@@H](Cc1c[nH]c2ccccc12)C(=O)O [YW] (H-Tyr-Trp-OH)
[1]
  IC50: 3400 µM
[1]; [5]
  Ki: 750 µM
[2]
  inhibition of cACE (in words): poor inhibitors

## CC(C)[C@H](N)C(=O)N[C@@H](Cc1c[nH]c2ccccc12)C(=O)O [VW] (H-Val-Trp-OH)
[3]
  Ki: 152 µM
[1]
  IC50: 780 µM
[1]; [5]
  Ki: 170 µM
[2]
  Ki: 2.1 µM

## N=C(N)NCCC[C@H](NC(=O)[C@@H](N)Cc1c[nH]c2ccccc12)C(=O)O [WR] (H-Trp-Arg-OH)
[1]
  IC50: 3780 µM
[1]; [5]
  Ki: 840 µM
[2]
  inhibition of cACE (in words): poor inhibitors

## CC[C@H](C)[C@H](N)C(=O)N[C@@H](Cc1c[nH]c2ccccc12)C(=O)O [IW]
[3]
  Ki: 59.6 µM
[1]
  IC50: 340 µM
[1]; [5]
  Ki: 80 µM
[4]
  IC50: 0.7 µM
[2]
  Ki: 1.6 µM

## NC(N)=NCCC[C@H](N)C(=O)N[C@@H](Cc1c[nH]c2ccccc12)C(=O)O [RW] (H-Arg-Trp-OH)
[1]
  IC50: 880 µM
[1]; values restated in µM in the text
  Ki: 200 µM

— PMC12025037, “Molecular Basis of Dipeptide Recognition in Drosophila melanogaster Angiotensin I-Converting Enzyme Homologue, AnCE” (Biomolecules, 2025)
